Measured values taken from ChEMBL document CHEMBL4613209, “Quinolone hybrids and their anti-cancer activities: An overview” (Eur J Med Chem, 2019).

Test system: Hep 3B2
Assay: Antiproliferative activity against human Hep3B cells after 24 to 72 hrs by MTT assay
Type: functional, cell-based
Conditions: not given

Row | SMILES | IC50 [µM]
1 | CCn1cc(C(=O)N/N=C/c2ccc(F)cc2)c(=O)c2cc(F)c(N3CCNCC3)cc21 | 1.4 to 52.3
2 | CCn1cc(C(=O)N/N=C/c2ccc([N+](=O)[O-])cc2)c(=O)c2cc(F)c(N3CCNCC3)cc21 | 1.4 to 52.3
3 | CCn1cc(C(=O)N/N=C/c2ccc(Cl)cc2)c(=O)c2cc(F)c(N3CCNCC3)cc21 | 1.4 to 52.3

Test system: L1210
Assay: Antiproliferative activity against mouse L1210 cells after 24 to 72 hrs by MTT assay
Type: functional, cell-based
Conditions: not given

Row | SMILES | IC50 [µM]
4 | CCn1cc(C(=O)N/N=C/c2ccc(F)cc2)c(=O)c2cc(F)c(N3CCNCC3)cc21 | 1.4 to 52.3
5 | CCn1cc(C(=O)N/N=C/c2ccc([N+](=O)[O-])cc2)c(=O)c2cc(F)c(N3CCNCC3)cc21 | 1.4 to 52.3
6 | CCn1cc(C(=O)N/N=C/c2ccc(Cl)cc2)c(=O)c2cc(F)c(N3CCNCC3)cc21 | 1.4 to 52.3

Test system: SMMC-7721
Assay: Antiproliferative activity against human SMMC7721 cells after 24 to 72 hrs by MTT assay
Type: functional, cell-based
Conditions: not given

Row | SMILES | IC50 [µM]
7 | CCn1cc(C(=O)N/N=C/c2ccc(F)cc2)c(=O)c2cc(F)c(N3CCNCC3)cc21 | 1.4 to 52.3
8 | CCn1cc(C(=O)N/N=C/c2ccc([N+](=O)[O-])cc2)c(=O)c2cc(F)c(N3CCNCC3)cc21 | 1.4 to 52.3
9 | CCn1cc(C(=O)N/N=C/c2ccc(Cl)cc2)c(=O)c2cc(F)c(N3CCNCC3)cc21 | 1.4 to 52.3

Test system: L1210
Assay: Cytotoxicity against mouse L1210 cells assessed as reduction in cell viability
Type: functional, cell-based
Conditions: not given

Row | SMILES | IC50 [µM]
10 | O=C(N/N=C/c1ccc(F)cc1)c1cn(C2CC2)c2cc(N/N=C/c3ccc(F)cc3)c(F)cc2c1=O | 1.5 to 23.5
11 | O=C(N/N=C/c1ccc2c(c1)OCO2)c1cn(C2CC2)c2cc(N/N=C/c3ccc4c(c3)OCO4)c(F)cc2c1=O | 1.5 to 23.5
12 | CN1CCN(c2cc3c(cc2F)c(=O)c(-c2nn4c(-c5cn(C6CC6)c6cc(N7CCNCC7)c(F)cc6c5=O)nnc4s2)cn3C2CC2)CC1 | 0.12 to 5.2
13 | COc1ccc(/C=N/NC(=O)c2cn(C3CC3)c3cc(N/N=C/c4ccc(OC)cc4)c(F)cc3c2=O)cc1 | 1.5 to 23.5
14 | O=C(N/N=C/c1ccccc1)c1cn(C2CC2)c2cc(N/N=C/c3ccccc3)c(F)cc2c1=O | 1.5 to 23.5
15 | COc1cc(/C=N/NC(=O)c2cn(C3CC3)c3cc(N/N=C/c4cc(OC)c(OC)c(OC)c4)c(F)cc3c2=O)cc(OC)c1OC | 1.5 to 23.5
16 | COc1cc(/C=N/NC(=O)c2cn(C3CC3)c3cc(N/N=C/c4ccc(O)c(OC)c4)c(F)cc3c2=O)ccc1O | 1.5 to 2.8
17 | CCN1CCN(c2cc3c(cc2F)c(=O)c(-c2nnc4sc(-c5cn(C6CC6)c6cc(N7CCNCC7)c(F)cc6c5=O)nn24)cn3C2CC2)CC1 | 0.12 to 5.2
18 | CCN1CCN(c2cc3c(cc2F)c(=O)c(-c2nnc4sc(-c5cn(CC)c6cc(N7CCN(C)CC7)c(F)cc6c5=O)nn24)cn3C2CC2)CC1 | 0.12 to 5.2
19 | COc1ccccc1/C=N/NC(=O)c1cn(C2CC2)c2cc(N/N=C/c3ccccc3OC)c(F)cc2c1=O | 1.5 to 23.5
20 | O=C(N/N=C/c1ccc(Cl)cc1)c1cn(C2CC2)c2cc(N/N=C/c3ccc(Cl)cc3)c(F)cc2c1=O | 1.5 to 23.5
21 | O=C(N/N=C/c1ccc([N+](=O)[O-])cc1)c1cn(C2CC2)c2cc(N/N=C/c3ccc([N+](=O)[O-])cc3)c(F)cc2c1=O | 1.5 to 23.5
22 | O=c1c(-c2nn3c(-c4cn(C5CC5)c5cc(N6CCNCC6)c(F)cc5c4=O)nnc3s2)cn(C2CC2)c2cc(N3CCNCC3)c(F)cc12 | 0.12 to 5.2
23 | CCN1CCN(c2cc3c(cc2F)c(=O)c(-c2nn4c(-c5cn(C6CC6)c6cc(N7CCN(CC)CC7)c(F)cc6c5=O)nnc4s2)cn3C2CC2)CC1 | 0.12 to 5.2
24 | CCN1CCN(c2cc3c(cc2F)c(=O)c(-c2nnc4sc(-c5cn(C6CC6)c6cc(N7CCN(C)CC7)c(F)cc6c5=O)nn24)cn3C2CC2)CC1 | 0.12 to 5.2
25 | Cc1ccc(/C=N/NC(=O)c2cn(C3CC3)c3cc(N/N=C/c4ccc(C)cc4)c(F)cc3c2=O)cc1 | 1.5 to 23.5
26 | CCN1CCN(c2cc3c(cc2F)c(=O)c(-c2nn4c(-c5cn(C6CC6)c6cc(N7CCNCC7)c(F)cc6c5=O)nnc4s2)cn3C2CC2)CC1 | 0.12 to 5.2
27 | CCN1CCN(c2cc3c(cc2F)c(=O)c(-c2nnc4sc(-c5cn(CC)c6cc(N7CCNCC7)c(F)cc6c5=O)nn24)cn3C2CC2)CC1 | 0.12 to 5.2

Test system: HL-60
Assay: Antiproliferative activity against human HL60 cells after 24 to 72 hrs by MTT assay
Type: functional, cell-based
Conditions: not given

Row | SMILES | IC50 [µM]
28 | CCn1cc(C(=O)N/N=C/c2ccc(F)cc2)c(=O)c2cc(F)c(N3CCNCC3)cc21 | 1.4 to 52.3
29 | CCn1cc(C(=O)N/N=C/c2ccc([N+](=O)[O-])cc2)c(=O)c2cc(F)c(N3CCNCC3)cc21 | 1.4 to 52.3
30 | CCn1cc(C(=O)N/N=C/c2ccc(Cl)cc2)c(=O)c2cc(F)c(N3CCNCC3)cc21 | 1.4 to 52.3

Test system: CHO
Assay: Cytotoxicity against CHO cells assessed as reduction in cell viability
Type: functional, cell-based
Conditions: Cricetulus griseus

Row | SMILES | IC50 [µM]
31 | O=C(N/N=C/c1ccc(F)cc1)c1cn(C2CC2)c2cc(N/N=C/c3ccc(F)cc3)c(F)cc2c1=O | 1.5 to 23.5
32 | O=C(N/N=C/c1ccc2c(c1)OCO2)c1cn(C2CC2)c2cc(N/N=C/c3ccc4c(c3)OCO4)c(F)cc2c1=O | 1.5 to 23.5
33 | CN1CCN(c2cc3c(cc2F)c(=O)c(-c2nn4c(-c5cn(C6CC6)c6cc(N7CCNCC7)c(F)cc6c5=O)nnc4s2)cn3C2CC2)CC1 | 0.12 to 5.2
34 | COc1ccc(/C=N/NC(=O)c2cn(C3CC3)c3cc(N/N=C/c4ccc(OC)cc4)c(F)cc3c2=O)cc1 | 1.5 to 23.5
35 | O=C(N/N=C/c1ccccc1)c1cn(C2CC2)c2cc(N/N=C/c3ccccc3)c(F)cc2c1=O | 1.5 to 23.5
36 | COc1cc(/C=N/NC(=O)c2cn(C3CC3)c3cc(N/N=C/c4cc(OC)c(OC)c(OC)c4)c(F)cc3c2=O)cc(OC)c1OC | 1.5 to 23.5
37 | COc1cc(/C=N/NC(=O)c2cn(C3CC3)c3cc(N/N=C/c4ccc(O)c(OC)c4)c(F)cc3c2=O)ccc1O | 1.5 to 2.8
38 | CCN1CCN(c2cc3c(cc2F)c(=O)c(-c2nnc4sc(-c5cn(C6CC6)c6cc(N7CCNCC7)c(F)cc6c5=O)nn24)cn3C2CC2)CC1 | 0.12 to 5.2
39 | CCN1CCN(c2cc3c(cc2F)c(=O)c(-c2nnc4sc(-c5cn(CC)c6cc(N7CCN(C)CC7)c(F)cc6c5=O)nn24)cn3C2CC2)CC1 | 0.12 to 5.2
40 | COc1ccccc1/C=N/NC(=O)c1cn(C2CC2)c2cc(N/N=C/c3ccccc3OC)c(F)cc2c1=O | 1.5 to 23.5
41 | O=C(N/N=C/c1ccc(Cl)cc1)c1cn(C2CC2)c2cc(N/N=C/c3ccc(Cl)cc3)c(F)cc2c1=O | 1.5 to 23.5
42 | O=C(N/N=C/c1ccc([N+](=O)[O-])cc1)c1cn(C2CC2)c2cc(N/N=C/c3ccc([N+](=O)[O-])cc3)c(F)cc2c1=O | 1.5 to 23.5
43 | O=c1c(-c2nn3c(-c4cn(C5CC5)c5cc(N6CCNCC6)c(F)cc5c4=O)nnc3s2)cn(C2CC2)c2cc(N3CCNCC3)c(F)cc12 | 0.12 to 5.2
44 | CCN1CCN(c2cc3c(cc2F)c(=O)c(-c2nn4c(-c5cn(C6CC6)c6cc(N7CCN(CC)CC7)c(F)cc6c5=O)nnc4s2)cn3C2CC2)CC1 | 0.12 to 5.2
45 | CCN1CCN(c2cc3c(cc2F)c(=O)c(-c2nnc4sc(-c5cn(C6CC6)c6cc(N7CCN(C)CC7)c(F)cc6c5=O)nn24)cn3C2CC2)CC1 | 0.12 to 5.2
46 | Cc1ccc(/C=N/NC(=O)c2cn(C3CC3)c3cc(N/N=C/c4ccc(C)cc4)c(F)cc3c2=O)cc1 | 1.5 to 23.5
47 | CCN1CCN(c2cc3c(cc2F)c(=O)c(-c2nn4c(-c5cn(C6CC6)c6cc(N7CCNCC7)c(F)cc6c5=O)nnc4s2)cn3C2CC2)CC1 | 0.12 to 5.2
48 | CCN1CCN(c2cc3c(cc2F)c(=O)c(-c2nnc4sc(-c5cn(CC)c6cc(N7CCNCC7)c(F)cc6c5=O)nn24)cn3C2CC2)CC1 | 0.12 to 5.2

Test system: HL-60
Assay: Cytotoxicity against human HL60 cells assessed as reduction in cell viability
Type: functional, cell-based
Conditions: not given

Row | SMILES | IC50 [µM]
49 | O=C(N/N=C/c1ccc(F)cc1)c1cn(C2CC2)c2cc(N/N=C/c3ccc(F)cc3)c(F)cc2c1=O | 1.5 to 23.5
50 | O=C(N/N=C/c1ccc2c(c1)OCO2)c1cn(C2CC2)c2cc(N/N=C/c3ccc4c(c3)OCO4)c(F)cc2c1=O | 1.5 to 23.5
51 | CN1CCN(c2cc3c(cc2F)c(=O)c(-c2nn4c(-c5cn(C6CC6)c6cc(N7CCNCC7)c(F)cc6c5=O)nnc4s2)cn3C2CC2)CC1 | 0.12 to 5.2
52 | COc1ccc(/C=N/NC(=O)c2cn(C3CC3)c3cc(N/N=C/c4ccc(OC)cc4)c(F)cc3c2=O)cc1 | 1.5 to 23.5
53 | O=C(N/N=C/c1ccccc1)c1cn(C2CC2)c2cc(N/N=C/c3ccccc3)c(F)cc2c1=O | 1.5 to 23.5
54 | COc1cc(/C=N/NC(=O)c2cn(C3CC3)c3cc(N/N=C/c4cc(OC)c(OC)c(OC)c4)c(F)cc3c2=O)cc(OC)c1OC | 1.5 to 23.5
55 | COc1cc(/C=N/NC(=O)c2cn(C3CC3)c3cc(N/N=C/c4ccc(O)c(OC)c4)c(F)cc3c2=O)ccc1O | 1.5 to 2.8
56 | CCN1CCN(c2cc3c(cc2F)c(=O)c(-c2nnc4sc(-c5cn(C6CC6)c6cc(N7CCNCC7)c(F)cc6c5=O)nn24)cn3C2CC2)CC1 | 0.12 to 5.2
57 | CCN1CCN(c2cc3c(cc2F)c(=O)c(-c2nnc4sc(-c5cn(CC)c6cc(N7CCN(C)CC7)c(F)cc6c5=O)nn24)cn3C2CC2)CC1 | 0.12 to 5.2
58 | COc1ccccc1/C=N/NC(=O)c1cn(C2CC2)c2cc(N/N=C/c3ccccc3OC)c(F)cc2c1=O | 1.5 to 23.5
59 | O=C(N/N=C/c1ccc(Cl)cc1)c1cn(C2CC2)c2cc(N/N=C/c3ccc(Cl)cc3)c(F)cc2c1=O | 1.5 to 23.5
60 | O=C(N/N=C/c1ccc([N+](=O)[O-])cc1)c1cn(C2CC2)c2cc(N/N=C/c3ccc([N+](=O)[O-])cc3)c(F)cc2c1=O | 1.5 to 23.5
61 | O=c1c(-c2nn3c(-c4cn(C5CC5)c5cc(N6CCNCC6)c(F)cc5c4=O)nnc3s2)cn(C2CC2)c2cc(N3CCNCC3)c(F)cc12 | 0.12 to 5.2
62 | CCN1CCN(c2cc3c(cc2F)c(=O)c(-c2nn4c(-c5cn(C6CC6)c6cc(N7CCN(CC)CC7)c(F)cc6c5=O)nnc4s2)cn3C2CC2)CC1 | 0.12 to 5.2
63 | CCN1CCN(c2cc3c(cc2F)c(=O)c(-c2nnc4sc(-c5cn(C6CC6)c6cc(N7CCN(C)CC7)c(F)cc6c5=O)nn24)cn3C2CC2)CC1 | 0.12 to 5.2
64 | Cc1ccc(/C=N/NC(=O)c2cn(C3CC3)c3cc(N/N=C/c4ccc(C)cc4)c(F)cc3c2=O)cc1 | 1.5 to 23.5
65 | CCN1CCN(c2cc3c(cc2F)c(=O)c(-c2nn4c(-c5cn(C6CC6)c6cc(N7CCNCC7)c(F)cc6c5=O)nnc4s2)cn3C2CC2)CC1 | 0.12 to 5.2
66 | CCN1CCN(c2cc3c(cc2F)c(=O)c(-c2nnc4sc(-c5cn(CC)c6cc(N7CCNCC7)c(F)cc6c5=O)nn24)cn3C2CC2)CC1 | 0.12 to 5.2
